Data from patent US20120309811A1, “P-GLYCOPROTEIN-SPECIFIC NON-COMPETITIVE PEPTIDE AND PEPTIDOMIMETIC MODULATORS” (UNIVERSITE CLAUDE BERNARD - LYON 1, priority 2009, published 2012).

Key:
Assay type in all cases: cell-based
[1] = tested on: NIH3T3 cells expressing or not expressing P-gp; assay: Cytotoxicity test (MTT), cell survival after 72 h
Protocol: The cells are seeded in a proportion of 10 000 per well in 96-well plates and incubated for 24 hours at 37° C. under 5% CO2. Varied concentrations of compounds Nos 2, 3, 4, 5 and 6, up to 20 times the IC50, are then added. The cytotoxicity is evaluated colorinnetrically with 3-(4,5-dimethylthiazol-2-yl)-2,5-diphenyltetrazolium bromide (MTT).
Increasing concentrations of compound No. 4 or No. 6 are applied to NIH3T3 cells expressing or not expressing P-gp. The cell survival is measured after 72 h and is expressed as a percentage. At 10 times the half-maximum-effect concentration, these two compounds are not toxic. Above this, the toxicity of compound No. 4 remains negligible, while that of compound No. 6 remains limited.

[2] = target: T1, P-gp (Homo sapiens, UniProt P08183); assay: Kinetics of inhibition of daunorubicin efflux produced by P-gp (mode of inhibition); details: Lineweaver & Burke double reciprocal representation
T1 construct: expressed in transfected cells; host or cells: NIH3T3 (ATCC CRL-1658), stably transfected with retroviral vector pHaMDR1/A
T1 sequence (P08183 whole entry): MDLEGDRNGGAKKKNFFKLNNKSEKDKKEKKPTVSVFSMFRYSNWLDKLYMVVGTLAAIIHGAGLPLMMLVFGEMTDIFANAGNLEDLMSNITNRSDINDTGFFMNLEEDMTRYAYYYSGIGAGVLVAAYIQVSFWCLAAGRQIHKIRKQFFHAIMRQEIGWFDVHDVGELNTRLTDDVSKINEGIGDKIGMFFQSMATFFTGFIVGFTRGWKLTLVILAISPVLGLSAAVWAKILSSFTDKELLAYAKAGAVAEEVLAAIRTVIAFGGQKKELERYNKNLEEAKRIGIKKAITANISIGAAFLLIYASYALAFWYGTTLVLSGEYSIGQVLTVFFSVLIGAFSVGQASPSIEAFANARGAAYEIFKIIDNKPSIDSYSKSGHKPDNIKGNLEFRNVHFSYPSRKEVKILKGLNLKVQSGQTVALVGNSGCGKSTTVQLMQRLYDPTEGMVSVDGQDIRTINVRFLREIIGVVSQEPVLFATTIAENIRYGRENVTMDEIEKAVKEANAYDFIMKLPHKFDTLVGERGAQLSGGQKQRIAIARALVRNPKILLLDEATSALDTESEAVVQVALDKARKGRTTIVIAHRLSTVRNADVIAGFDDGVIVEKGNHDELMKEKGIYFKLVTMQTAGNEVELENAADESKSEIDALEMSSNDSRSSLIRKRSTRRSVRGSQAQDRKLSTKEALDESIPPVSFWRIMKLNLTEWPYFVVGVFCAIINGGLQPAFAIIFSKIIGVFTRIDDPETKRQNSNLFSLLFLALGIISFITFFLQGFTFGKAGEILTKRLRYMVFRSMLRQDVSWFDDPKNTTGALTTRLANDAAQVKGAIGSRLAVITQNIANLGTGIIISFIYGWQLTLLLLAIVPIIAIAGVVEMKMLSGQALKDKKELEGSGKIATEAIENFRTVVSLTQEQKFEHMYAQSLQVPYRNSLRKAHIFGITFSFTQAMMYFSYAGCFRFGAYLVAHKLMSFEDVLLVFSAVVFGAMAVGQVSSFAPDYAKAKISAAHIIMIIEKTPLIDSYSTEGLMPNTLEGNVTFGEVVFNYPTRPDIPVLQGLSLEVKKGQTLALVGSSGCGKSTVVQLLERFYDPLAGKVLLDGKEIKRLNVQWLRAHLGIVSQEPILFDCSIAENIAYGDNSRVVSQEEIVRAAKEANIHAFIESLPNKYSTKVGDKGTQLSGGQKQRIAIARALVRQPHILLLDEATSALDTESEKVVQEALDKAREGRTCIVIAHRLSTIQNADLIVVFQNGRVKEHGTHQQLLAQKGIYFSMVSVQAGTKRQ
Protocol: FIGS. 6A and 6B show the kinetics of inhibition of daunorubicin efflux produced by P-gp, with compound No. 6. The intracellular daunorubicin fluorescence is measured in the presence of increasing concentrations of No. 6, respectively 0 (circles), 0.12 μM (triangles), 0.22 μM (squares), 0.44 μM (diamonds) and 10 μM (upward-pointing triangles), corresponding to 0, 25, 50, 75 and 100% efflux inhibition effectiveness. FIG. 6A: direct representation, FIG. 6B, Lineweaver & Burke double reciprocal representation.
The intracellular concentration of fluorescent daunorubicin is measured at increasing daunorubicin concentrations, in the presence or absence of fixed concentrations of 0, 0.12 μM, 0.22 μm, 0.44 μM and 10 μM of compound No. 6 corresponding to 0%, 25%, 50%, 75% and 100% efflux inhibition effectiveness according to FIG. 3.

[3] = target: T1, P-gp; assay: Flow cytometry, inhibition of mitoxantrone efflux in NIH3T3 cells expressing P-gp
Source text: (§1) The HEK-293 human fibroblast line (ATCC cell collection CRL-1573) is transfected with either BCRP (Robey R. W. et al. 2003, Br. J. Cancer 89(10) 1971-1978, [32]) or ABCC1, cloned into the pcDNA3.1 expression vector (Invitrogen), or with the empty pcDNA3.1 vector. The NIH3T3 cell line (ATCC CRL-1658) was stably transfected with pHaMDR1/A (Cardarelli et al. 1995 Cancer Res 55 1086-1091, [33]), which is a retroviral vector that expresses the wild-type MDR1 protein. The BHK-21 cell line (ATCC CCL-10) was transfected with MRP1 cloned into the pcDNA3.1 expression vector, or the empty pcDNA3.1 vector. The cells are maintained in culture in DMEM glutamax II (Invitrogen) supplemented with 10% of fetal bovine serum and 1% of penicillin/streptomycin. The data are processed with Sigmaplot V11 (http://www.systat.com/), and the equation for mathematical adjustment of the experimental data for calculating the IC50 values: f=a×(1−exp(−b×x)) (a=slope, b=intercept on the y-axis).
(§2) The cells expressing P-gp, BCRP and MRP, and their corresponding controls, are placed in the presence of 10 and 2 μM of mitoxantrone for the first two transporters and of 1 μM of daunorubicin for the 3rd. Substrate accumulation is carried out for 30 minutes at 37° C. in the presence or absence of varied concentrations of the molecules tested, at a final DMSO (dimethyl sulfoxide) concentration of 0.5%. After washing with PBS (phosphate buffered saline), the cells are incubated in medium containing the same concentrations of molecules tested as previously, for 1 h at 37° C. The intracellular fluorescence of mitoxantrone and daunorubicin anticancer agent is measured with the FACscan flow cytometer (Becton Dickinson, Mountain, View, Calif.). The drugs are excited at 488 nm. The emission of mitoxantrone is measured at 650 nm, whereas the emission of daunorubicin is measured at 530 nm. The effectiveness of the molecules tested is expressed by equation 1: % effectiveness=100×(FA−FBG)/(FC−FBG), where FA corresponds to the intracellular level of substrate measured in the cells overexpressing ABCG2 (corresponding to the lowest level of fluorescence in the absence of inhibitor), FC corresponds to the fluorescence in the control cells transfected with the empty vector (and therefore to the maximum accumulation of substrate in the cells) and FBG corresponds to the fluorescence measured in the absence of substrate and in the presence of inhibitor.
(§3) The inhibitory effect of the compounds is quantified by measuring, by flow cytometry, the efflux of an anticancer drug transported by the pump under consideration, i.e. mitoxantrone for P-gp and BCRP and daunorubicin for MRP1. It is compared with that of the reference product, reversin 121. The products are tested at 10 μM, then at 2 μM for those which block at least 80% of the efflux of mitoxantrone, and for some, a more complete concentration range is tested so as to establish the concentration value producing 50% inhibition, IC50, as indicated in FIG. 3.

[4] = target: T2, BCRP (Homo sapiens, UniProt Q9UNQ0); assay: Flow cytometry, inhibition of mitoxantrone efflux in HEK-293 cells transfected with BCRP; details: 10 μM compound
T2 construct: expressed in transfected cells; host or cells: HEK-293 (ATCC CRL-1573), pcDNA3.1 expression vector (Invitrogen)
T2 sequence (Q9UNQ0 1-655): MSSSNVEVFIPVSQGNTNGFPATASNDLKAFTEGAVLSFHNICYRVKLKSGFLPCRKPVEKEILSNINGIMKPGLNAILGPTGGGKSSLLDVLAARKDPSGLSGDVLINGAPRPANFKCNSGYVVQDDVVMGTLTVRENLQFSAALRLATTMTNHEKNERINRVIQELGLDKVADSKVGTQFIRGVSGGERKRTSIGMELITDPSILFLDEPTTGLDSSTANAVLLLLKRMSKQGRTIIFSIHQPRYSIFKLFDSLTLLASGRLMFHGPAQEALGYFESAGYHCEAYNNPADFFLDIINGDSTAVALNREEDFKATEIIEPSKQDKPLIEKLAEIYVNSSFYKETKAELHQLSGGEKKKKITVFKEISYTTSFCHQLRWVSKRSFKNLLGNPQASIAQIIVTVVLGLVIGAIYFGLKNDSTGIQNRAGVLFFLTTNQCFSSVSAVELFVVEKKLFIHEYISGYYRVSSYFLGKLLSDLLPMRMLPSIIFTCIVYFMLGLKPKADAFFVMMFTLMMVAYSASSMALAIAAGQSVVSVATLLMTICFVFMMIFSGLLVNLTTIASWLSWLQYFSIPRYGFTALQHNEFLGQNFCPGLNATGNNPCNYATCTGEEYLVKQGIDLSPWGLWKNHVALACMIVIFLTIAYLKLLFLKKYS
Source text: as §1, §2, §3

[5] = target: T3, MRP1 (Homo sapiens, UniProt P33527); assay: Flow cytometry, inhibition of daunorubicin efflux in cells transfected with MRP1; details: human, probe daunorubicin, 10 μM compound, read-out: % pump inhibition at 10 μM of compound, MRP1
T3 construct: expressed in transfected cells; host or cells: BHK-21 (ATCC CCL-10) with MRP1 in pcDNA3.1; HEK-293 transfected with ABCC1 in pcDNA3.1 is also described
T3 sequence (P33527 whole entry): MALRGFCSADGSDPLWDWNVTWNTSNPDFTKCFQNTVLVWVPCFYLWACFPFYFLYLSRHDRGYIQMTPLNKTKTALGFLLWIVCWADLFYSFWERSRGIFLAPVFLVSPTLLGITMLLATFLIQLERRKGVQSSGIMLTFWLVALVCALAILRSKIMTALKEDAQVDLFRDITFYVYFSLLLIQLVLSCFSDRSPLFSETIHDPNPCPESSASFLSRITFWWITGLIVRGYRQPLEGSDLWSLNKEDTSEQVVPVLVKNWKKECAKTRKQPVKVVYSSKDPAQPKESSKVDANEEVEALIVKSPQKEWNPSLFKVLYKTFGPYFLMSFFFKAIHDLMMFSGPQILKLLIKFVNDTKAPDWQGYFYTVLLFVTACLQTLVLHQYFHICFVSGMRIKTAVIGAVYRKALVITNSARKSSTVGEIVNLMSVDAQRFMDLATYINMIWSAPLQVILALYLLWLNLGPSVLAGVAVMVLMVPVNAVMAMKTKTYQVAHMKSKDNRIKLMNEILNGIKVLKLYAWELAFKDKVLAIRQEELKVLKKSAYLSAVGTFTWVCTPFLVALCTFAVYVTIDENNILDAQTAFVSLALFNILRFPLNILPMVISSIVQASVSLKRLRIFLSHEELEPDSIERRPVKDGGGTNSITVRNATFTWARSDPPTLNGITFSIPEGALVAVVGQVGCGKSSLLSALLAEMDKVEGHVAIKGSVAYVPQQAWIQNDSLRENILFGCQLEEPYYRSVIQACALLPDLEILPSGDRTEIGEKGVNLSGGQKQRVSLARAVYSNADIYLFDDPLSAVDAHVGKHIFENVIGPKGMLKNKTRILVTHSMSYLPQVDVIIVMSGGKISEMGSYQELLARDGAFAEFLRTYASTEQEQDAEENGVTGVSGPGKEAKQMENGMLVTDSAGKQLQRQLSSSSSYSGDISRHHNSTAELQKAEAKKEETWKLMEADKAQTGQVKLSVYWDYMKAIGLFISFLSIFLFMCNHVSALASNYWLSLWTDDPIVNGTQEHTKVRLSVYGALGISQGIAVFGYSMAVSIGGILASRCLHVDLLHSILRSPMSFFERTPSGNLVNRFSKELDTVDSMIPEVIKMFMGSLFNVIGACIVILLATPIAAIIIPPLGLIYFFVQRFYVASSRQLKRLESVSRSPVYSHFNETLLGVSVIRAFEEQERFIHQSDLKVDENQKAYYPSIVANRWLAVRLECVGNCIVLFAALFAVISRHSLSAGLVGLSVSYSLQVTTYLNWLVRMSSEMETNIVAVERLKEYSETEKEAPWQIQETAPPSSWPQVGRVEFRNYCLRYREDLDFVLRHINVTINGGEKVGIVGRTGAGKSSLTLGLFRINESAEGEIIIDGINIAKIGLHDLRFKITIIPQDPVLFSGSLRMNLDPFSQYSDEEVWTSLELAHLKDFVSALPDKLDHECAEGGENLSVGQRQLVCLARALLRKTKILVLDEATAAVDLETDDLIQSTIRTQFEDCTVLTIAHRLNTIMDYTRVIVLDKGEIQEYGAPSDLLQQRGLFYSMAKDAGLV
Source text: as §1, §2
The inhibitory effect of the compounds is quantified by measuring, by flow cytometry, the efflux of an anticancer drug transported by the pump under consideration, i.e. mitoxantrone for P-gp and BCRP and daunorubicin for MRP1. It is compared with that of the reference product, reversin 121. […]

In the case of `CC(C)(C)OC(=O)[C@H](CCCCNC(=O)OCc1ccccc1)NC[C@@H]1C[C@@H](OCc2ccccc2)CN1C(=O)OC(C)(C)C` [No. 6, N^α-Boc-trans-L-4-Hyp(Bn)-ψ(CH2-NH)-L-Lys(Z)-OtBu], the cytotoxicity ([1]; above 10 times the half-maximum-effect concentration) is reported as “limited”, the cytotoxicity ([1]; at 10 times the half-maximum-effect concentration) is reported as “not toxic” and the mechanism of inhibition [2] is reported as “noncompetitive”. For the same compound, the “IC50 for P-gp compared with that of reversin 121” value [3] was “seven times better”, the “% pump inhibition at 10 μM of compound, P-gp” value ([3]; 10 μM compound, mitoxantrone efflux) was 106.9 ± 23.0% and the inhibition at 1 h, 0.12 µM ([3]; human, probe mitoxantrone, 0.12 μM compound, according to FIG. 3, read-out: efflux inhibition effectiveness) was 25%. The inhibition at 1 h, 0.44 µM ([3]; human, probe mitoxantrone, 0.44 μM compound, according to FIG. 3, read-out: efflux inhibition effectiveness) was 75%, the inhibition at 1 h, 10 µM ([3]; human, probe mitoxantrone, 10 μM compound, according to FIG. 3, read-out: efflux inhibition effectiveness) was 100% and the inhibition at 1 h, 0.22 μM ([3]; human, probe mitoxantrone, 0.22 μm compound, according to FIG. 3, read-out: efflux inhibition effectiveness) was 50%. For the same compound, the IC50 ([3]; mitoxantrone efflux, mathematical adjustment of experimental points) was 220 ± 30 nM, the “% pump inhibition at 10 μM of compound, BCRP” value [4] was 42.3 ± 0.8% and the inhibition at 1 h, 10 µM [5] was less than 10%.
